This passage reports IC50 results from patent publication US20210198277A1, “AMINE-SUBSTITUTED ARYL OR HETEROARYL COMPOUNDS” (Epizyme, Inc., priority 2016, published 2021).

The target in one assay is T1, EHMT1 (Homo sapiens, UniProt Q9H9B1).
T1 sequence (Q9H9B1 1-1298): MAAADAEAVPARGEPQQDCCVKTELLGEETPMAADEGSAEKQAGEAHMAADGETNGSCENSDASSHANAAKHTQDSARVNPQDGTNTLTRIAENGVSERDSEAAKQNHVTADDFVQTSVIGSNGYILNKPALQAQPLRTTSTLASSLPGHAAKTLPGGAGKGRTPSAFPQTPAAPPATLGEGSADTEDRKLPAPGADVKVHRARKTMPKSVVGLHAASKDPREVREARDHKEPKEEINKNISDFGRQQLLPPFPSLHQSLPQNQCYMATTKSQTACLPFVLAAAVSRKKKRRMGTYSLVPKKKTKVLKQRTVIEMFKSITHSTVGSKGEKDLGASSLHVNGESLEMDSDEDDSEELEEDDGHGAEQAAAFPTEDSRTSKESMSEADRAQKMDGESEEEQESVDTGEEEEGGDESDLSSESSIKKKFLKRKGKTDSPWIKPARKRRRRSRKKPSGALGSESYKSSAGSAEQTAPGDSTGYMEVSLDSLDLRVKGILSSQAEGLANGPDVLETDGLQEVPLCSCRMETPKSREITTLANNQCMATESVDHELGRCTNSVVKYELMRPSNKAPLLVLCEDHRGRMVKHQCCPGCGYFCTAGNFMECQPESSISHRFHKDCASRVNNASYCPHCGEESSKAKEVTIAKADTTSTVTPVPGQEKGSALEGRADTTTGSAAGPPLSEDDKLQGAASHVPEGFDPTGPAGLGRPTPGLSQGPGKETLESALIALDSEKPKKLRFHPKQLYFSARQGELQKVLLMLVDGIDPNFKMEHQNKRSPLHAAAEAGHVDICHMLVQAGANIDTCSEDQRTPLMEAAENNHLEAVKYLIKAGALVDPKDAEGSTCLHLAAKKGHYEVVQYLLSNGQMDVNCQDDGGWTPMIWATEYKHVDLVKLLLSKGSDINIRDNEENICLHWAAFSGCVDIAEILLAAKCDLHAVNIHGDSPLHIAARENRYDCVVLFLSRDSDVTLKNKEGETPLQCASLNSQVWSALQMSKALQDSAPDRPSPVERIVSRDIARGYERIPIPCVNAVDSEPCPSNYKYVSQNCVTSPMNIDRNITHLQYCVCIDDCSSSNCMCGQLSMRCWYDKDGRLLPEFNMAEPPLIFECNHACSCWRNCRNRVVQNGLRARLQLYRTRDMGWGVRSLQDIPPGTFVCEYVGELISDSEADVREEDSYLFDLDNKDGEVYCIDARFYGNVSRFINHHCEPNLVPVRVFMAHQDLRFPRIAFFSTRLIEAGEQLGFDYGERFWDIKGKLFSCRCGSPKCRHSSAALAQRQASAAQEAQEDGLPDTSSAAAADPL
Nature of the assay: EHMT1 enzyme assay on peptide substrate (EHMT1 PEP). The format is biochemical. The following applies: Table II; read-out: EHMT1 PEP (IC50 μM).

The target in the next assay is T2, human EHMT2 913-1193 (Homo sapiens, UniProt Q96KQ7).
T2 construct: recombinant purified human EHMT2 913-1193, Viva; purchased Viva
T2 sequence (Q96KQ7 913-1193): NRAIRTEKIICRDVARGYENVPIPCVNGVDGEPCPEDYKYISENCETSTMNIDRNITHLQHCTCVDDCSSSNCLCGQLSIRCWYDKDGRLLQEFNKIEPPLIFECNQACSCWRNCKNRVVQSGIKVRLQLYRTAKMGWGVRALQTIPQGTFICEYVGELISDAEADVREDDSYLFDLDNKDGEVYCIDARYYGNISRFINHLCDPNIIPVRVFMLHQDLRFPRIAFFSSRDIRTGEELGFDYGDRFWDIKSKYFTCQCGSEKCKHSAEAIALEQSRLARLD
The assay can be described thus: EHMT2 enzyme assay on histone peptide substrate (EHMT2 PEP). The format is biochemical. The following applies: Table II; read-out: EHMT2 PEP (IC50 μM). The method in brief: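 Compounds (10-point, 3-fold dilutions, top 50 μM final, 2% DMSO) preincubated 30 min with 0.031 nM EHMT2 in 20 mM Bicine pH 7.5, 0.002% Tween 20, 0.005% gelatin, 1 mM TCEP. Biotinylated histone peptide methylated with ^3H-SAM 60 min at room temperature. Quenched with unlabeled SAM; product captured on streptavidin Flashplate, scintillation counted.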

For orientation: IC50 means the concentration at which inhibition is half-maximal. Regarding `COc1ccc(Nc2nccc(N3CCN(S(C)(=O)=O)CC3)n2)cc1OCCCN1CCCC1` [Compound 162], the IC50 at EHMT1 and at human EHMT2 913-1193 was above 10 µM each time.
For `COc1ccc(Nc2nccc(N3CCCOCC3)n2)cc1OCCCN1CCCC1` [Compound 151], the half-maximal inhibitory concentration (IC50) on EHMT1 and at human EHMT2 913-1193 was above 10 µM throughout.
With `COc1ccc(Nc2nccc(N(C)CC3CCOCC3)n2)cc1OCCCN1CCCC1` [Compound 146], the IC50 on EHMT1 and at human EHMT2 913-1193 was above 10 µM each time.
With `COc1ccc(Nc2ccnc(OCC3CCN(C(C)=O)CC3)c2)cc1OCCCN1CCCC1` [Compound 157], the 50% inhibitory concentration (IC50) on EHMT1 and at human EHMT2 913-1193 was 1 to 10 µM throughout.
As for `COc1ccc(N(C)c2nccc(NCC3CCN(C(C)=O)CC3)n2)cc1OCCCN1CCCC1` [Compound 158], the IC50 at EHMT1 and at human EHMT2 913-1193 was above 10 µM each time.
Regarding `COc1ccc(Nc2nccc(NCC3CCOCC3)n2)cc1OCCN1CCOCC1` [Compound 204], the IC50 at EHMT1 and at human EHMT2 913-1193 was 1 to 10 µM in each case.
For the compound `COc1ccc(Nc2nccc(N(C)CCO)n2)cc1OCCCN1CCCC1` [Compound 150], the IC50 at EHMT1 lay within 1 to 10 µM; on human EHMT2 913-1193 it was 0.1 to 1 µM.
Turning to `COc1ccc(Nc2nccc(N3CCC(C)(O)CC3)n2)cc1OCCCN1CCCC1` [Compound 141], the IC50 on EHMT1 and at human EHMT2 913-1193 was above 10 µM each time.
In the case of `COc1ccc(Nc2nccc(NCCc3ccccn3)n2)cc1OCCCN1CCCC1` [Compound 167], the 50% inhibitory concentration (IC50) at EHMT1 and at human EHMT2 913-1193 was 0.1 to 1 µM each time.
On to `COc1ccc(Nc2ncc(CO)cn2)cc1OCCCN1CCCC1` [Compound 181], for which the concentration for half-maximal inhibition (IC50) on EHMT1 and on human EHMT2 913-1193 was above 10 µM in each case.
Turning to `COc1ccc(Nc2nccc(N3CCc4ncncc4C3)n2)cc1OCCCN1CCCC1` [Compound 156], the IC50 at EHMT1 and at human EHMT2 913-1193 was 1 to 10 µM in each case.
Turning to `COc1cnc(Nc2ccnc(CNC3CCOCC3)c2)cc1OCCCN1CCCC1` [Compound 12, 5-methoxy-4-(3-(pyrrolidin-1-yl)propoxy)-N-(2-(((tetrahydro-2H-pyran-4-yl)amino)methyl)pyridin-4-yl)pyridin-2-amine], the IC50 at EHMT1 and at human EHMT2 913-1193 was 1 to 10 µM each time.
Consider `COc1ccc(Nc2nccc(N(C)Cc3ccccn3)n2)cc1OCCCN1CCCC1` [Compound 136], for which the half-inhibitory concentration (IC50) at EHMT1 and at human EHMT2 913-1193 was 1 to 10 µM in each case.
For `CNc1cc(C)nc(Nc2ccc(OC)c(OCCCN3CC[C@@H](F)C3)c2)n1` [Compound 186], the concentration for half-maximal inhibition (IC50) at EHMT1 and at human EHMT2 913-1193 was 0.1 to 1 µM throughout.
With `COc1ccc(Nc2nccc(NCc3ccc(=O)[nH]c3)n2)cc1OCCCN1CCCC1` [Compound 165], the 50% inhibitory concentration (IC50) on EHMT1 and at human EHMT2 913-1193 was 0.1 to 1 µM in each case.
On to `COc1ccc(Nc2nc(C)cc(C)n2)cc1OCCCN1CCCC1` [Compound 175], for which the IC50 at EHMT1 and on human EHMT2 913-1193 was above 10 µM throughout.
Take `COc1ccc(Nc2nccc(NC3COC3)n2)cc1OCCCN1CCCC1` [Compound 137]: the IC50 on EHMT1 and at human EHMT2 913-1193 was 1 to 10 µM each time.
`COc1ccc(Nc2nccc(-c3c(C)n[nH]c3C)n2)cc1OCCCN1CCCC1` [Compound 129]: the IC50 on EHMT1 and on human EHMT2 913-1193 was above 10 µM throughout.
With `CCOC(=O)N1CCC(CNc2ccnc(Nc3ccc(OC)c(OCCCN4CCCC4)c3)n2)CC1` [Compound 203], the half-inhibitory concentration (IC50) on EHMT1 and at human EHMT2 913-1193 was 0.1 to 1 µM each time.
Turning to `COc1ccc(Nc2nccc(NCCC3CCOCC3)n2)cc1OCCCN1CCCC1` [Compound 178], the IC50 on EHMT1 and at human EHMT2 913-1193 was 0.1 to 1 µM throughout.
On to `COc1ccc(Nc2nccc(N3CC(C(=O)N(C)C)C3)n2)cc1OCCCN1CCCC1` [Compound 170], for which the IC50 on EHMT1 and at human EHMT2 913-1193 was above 10 µM throughout.
Take `COc1ccc(Nc2ccnc(N(C)CC3CCN(C(C)=O)CC3)c2)cc1OCCCN1CCCC1` [Compound 13, 1-(4-(((4-((4-methoxy-3-(3-(pyrrolidin-1-yl)propoxy)phenyl)amino)pyridin-2-yl)(methyl)amino)methyl)piperidin-1-yl)ethan-1-one]: the half-inhibitory concentration (IC50) at EHMT1 and at human EHMT2 913-1193 was above 10 µM each time.
With `COc1ccc(Nc2nccc(N(C)CCCO)n2)cc1OCCCN1CCCC1` [Compound 140], the 50% inhibitory concentration (IC50) on EHMT1 and at human EHMT2 913-1193 was 1 to 10 µM throughout.
For the compound `COc1ccc(Nc2nccc(C)n2)cc1OCCCN1CCCC1` [Compound 174], the 50% inhibitory concentration (IC50) at EHMT1 and at human EHMT2 913-1193 was above 10 µM in each case.
With `COc1ccc(Nc2nccc(CNC(C)=O)n2)cc1OCCCN1CCCC1` [Compound 144], the half-inhibitory concentration (IC50) at EHMT1 and on human EHMT2 913-1193 was above 10 µM in each case.
For the compound `COc1ccc(Nc2nccc(N(C)C)n2)cc1OCCCN1CCCC1` [Compound 171], the IC50 on EHMT1 and on human EHMT2 913-1193 was 1 to 10 µM throughout.
In the case of `COc1ccc(Nc2nccc(NC(C)(C)C)n2)cc1OCCCN1CCCC1` [Compound 6, N^4-(tert-butyl)-N^2-(4-methoxy-3-(3-(pyrrolidin-1-yl)propoxy)phenyl)pyrimidine-2,4-diamine], the IC50 on EHMT1 is 0.1 to 1 µM; at human EHMT2 913-1193, below 0.1 µM.
As to `COc1ccc(Nc2nccc(-c3c[nH]nc3C)n2)cc1OCCCN1CCCC1` [Compound 131], the IC50 at EHMT1 and at human EHMT2 913-1193 was above 10 µM in each case.
Consider `COc1ccc(Nc2nccc(NCc3ccc4nccn4c3)n2)cc1OCCCN1CCCC1` [Compound 191], for which the concentration for half-maximal inhibition (IC50) on EHMT1 and at human EHMT2 913-1193 was below 0.1 µM each time.
For `COc1ccc(Nc2nccc(-c3c(C)noc3C)n2)cc1OCCCN1CCCC1` [Compound 130], the IC50 at EHMT1 and on human EHMT2 913-1193 was above 10 µM throughout.
Turning to `COc1ccc(Nc2nccc(NCC3CCN(S(C)(=O)=O)CC3)n2)cc1OCCCN1CCCC1` [Compound 199], the IC50 at EHMT1 and at human EHMT2 913-1193 was 0.1 to 1 µM in each case.
In the case of `COc1ccc(Nc2nccc(-n3cc(C)cn3)n2)cc1OCCCN1CCCC1` [Compound 180], the IC50 at EHMT1 and at human EHMT2 913-1193 was above 10 µM throughout.
With `COc1ccc(Nc2nccc(NCC3CCNCC3)n2)cc1OCC(O)CN1CCCC1` (centres unmarked) [Compound 15, 1-(2-methoxy-5-((4-((piperidin-4-ylmethyl)amino)pyrimidin-2-yl)amino)phenoxy)-3-(pyrrolidin-1-yl)propan-2-ol], the IC50 at EHMT1 and at human EHMT2 913-1193 was below 0.1 µM throughout.
Turning to `COc1ccc(Nc2nccc(N3CCc4[nH]ncc4C3)n2)cc1OCCCN1CCCC1` [Compound 128], the IC50 at EHMT1 and on human EHMT2 913-1193 was above 10 µM throughout.
Take `COc1ccc(Nc2nccc(N(C)C3CCOCC3)n2)cc1OCCCN1CCCC1` [Compound 142]: the IC50 at EHMT1 and on human EHMT2 913-1193 was 1 to 10 µM in each case.
For the compound `COCCCN(C)c1ccnc(Nc2ccc(OC)c(OCCCN3CCCC3)c2)n1` [Compound 143], the half-maximal inhibitory concentration (IC50) at EHMT1 and on human EHMT2 913-1193 was 1 to 10 µM throughout.
With `COc1ccc(Nc2cc(CNC3CCOCC3)n(C)n2)cc1OCCCN1CCCC1` [Compound 127], the IC50 at EHMT1 and on human EHMT2 913-1193 was above 10 µM throughout.
Turning to `COc1ccc(Nc2nccc(NCCn3cccn3)n2)cc1OCCCN1CCCC1` [Compound 193], the IC50 on EHMT1 and on human EHMT2 913-1193 was 0.1 to 1 µM in each case.
Take `COc1ccc(Nc2nccc(NCC3CCN(C(C)=O)CC3)n2)cc1OCCC(=O)N1CCCC1` [Compound 166]: the IC50 at EHMT1 and on human EHMT2 913-1193 was above 10 µM throughout.
For the compound `COc1ccc(Nc2cc(OCC3CCN(C(C)=O)CC3)ccn2)cc1OCCCN1CCCC1` [Compound 173], the IC50 at EHMT1 and at human EHMT2 913-1193 was 1 to 10 µM each time.
